Literature values in patent publication US7456204B2, “Cyclohexylglycine derivatives as dipeptidyl peptidase inhibitors for the treatment or prevention of diabetes” (Merck & Co., Inc., priority 2003, dated 2008).

Columns and labels:
[1] = test system: cardiac allograft survival; details: rats; from day 7 to day 14
[2] = test system: hematopoiesis; details: mouse, cyclophosphamide-induced neutropenia
[3] = target: T1, DP-IV (Homo sapiens, UniProt P27487)
T1 construct: GRF is rapidly degraded in plasma to GRF[3-44]
T1 sequence (P27487 39-766 limits assumed): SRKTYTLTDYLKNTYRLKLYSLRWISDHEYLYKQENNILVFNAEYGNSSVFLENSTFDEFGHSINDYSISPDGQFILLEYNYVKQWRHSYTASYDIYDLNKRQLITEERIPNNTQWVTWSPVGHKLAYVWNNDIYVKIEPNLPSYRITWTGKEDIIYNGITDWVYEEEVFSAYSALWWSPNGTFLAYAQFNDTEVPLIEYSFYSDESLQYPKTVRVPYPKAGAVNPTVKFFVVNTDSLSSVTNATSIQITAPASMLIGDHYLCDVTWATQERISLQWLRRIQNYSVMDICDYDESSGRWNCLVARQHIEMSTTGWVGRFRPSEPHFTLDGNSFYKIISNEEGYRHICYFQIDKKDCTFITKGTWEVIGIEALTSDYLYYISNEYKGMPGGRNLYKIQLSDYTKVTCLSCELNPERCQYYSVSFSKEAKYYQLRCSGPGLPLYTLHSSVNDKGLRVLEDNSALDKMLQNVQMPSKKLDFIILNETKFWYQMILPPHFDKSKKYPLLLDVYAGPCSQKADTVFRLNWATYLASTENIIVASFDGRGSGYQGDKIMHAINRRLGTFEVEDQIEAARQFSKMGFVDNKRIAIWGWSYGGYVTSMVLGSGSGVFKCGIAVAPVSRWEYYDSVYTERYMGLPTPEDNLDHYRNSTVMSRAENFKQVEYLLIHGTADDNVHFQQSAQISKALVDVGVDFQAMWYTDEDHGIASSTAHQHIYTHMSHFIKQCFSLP

Question: With CC(C)N1CCC(c2ccccc2)(c2ccccc2)CC1 [Prodipine, Pro-Pro-diphenyl-phosphonate] as the compound, how does the cardiac allograft survival [1] read?
Answer: double cardiac allograft survival

Question: Which hematopoiesis [2] does the source give for CC(C)[C@H](N)C(=O)N1CCC[C@H]1B(O)O [Val-Boro-Pro] here?
Answer: stimulated hematopoiesis

Question: With CC[C@H](C)[C@H](N)C(=O)N1CCC[C@H]1C(=O)N[C@H](C(=O)O)[C@@H](C)CC [diprotin A] as the compound, how does the “degradation of GRF in plasma to GRF[3-44]” value [3] read?
Answer: prevented
